Data reported in US5049694A, “Pharmaceutical composition having relaxing activity which contains a nitrate ester as active substance” (Cedona Pharmaceuticals B.V., priority 1988, dated 1991).
Like-named read-outs stand apart in the source and are kept apart here.

Columns and labels:
[1] = tested on: contracted strips of the rats' arota; assay: relaxing potency in vitro on phenylefrine-contracted strips of rat aorta; type: cell-based, rat (male Wistar); details: read-out: EC50 (concentration with which relaxation took place up to 50% of the contraction induced by 10^-7 M phenylefrine)
Method: The relaxing potency of the compounds as described is tested in vitro on contracted strips of the rats' arota. Male Wistar rates (200-220 g) are killed by decapitation. The thoracal aorta is removed and is helically cut into strips (length: ±10 mm, width: ±2 mm; 4 strips per rat).
The strips are suspended in organ baths filled with 20 ml of Krebs' medium with a constant temperature of 37° C. passing through O2 /CO2 (95/5) and subsequently for 2 h equilibrated under an isotonic load of 500 mg. The medium is renewed every 20 minutes.
After equilibration contraction takes place by addition of 10^-7M phenylefrine to the medium. After reaching the maximal contraction the composition with the organic nitrate ester to be tested in cumulative concentration steps is relaxed.
The degree of relaxation is expressed as a percentage of the maximal contraction (=100%) reached with 10^-7 M phenylefrine. The relaxing potency of the tested compounds is expressed as the EC50 : the concentration with which relaxation took place up to 50% of the contraction induced by 10^-7 M phenylefrine. From a number of compounds the EC50 -values have been stated in Table 1. For comparison the EC50 -values of glyceryltrinitrate and isosorbidedinitrate have also been included.

[2] = tested on: heart; details: therapeutical use; cited from earlier work
[3] = chronical administration, clinical; cited from earlier work

Compound | EC50 ([1]; Rattus norvegicus) | further results
O=[N+]([O-])OCCc1ccccc1 [Compound 1, 2-phenylethanol nitrate] | – | EC50 [1]: 120 nM
O=[N+]([O-])OCCc1cccc2ccccc12 [Compound 9, 2-(1-naphthyl)ethanol nitrate] | 4.2 nM | –
O=[N+]([O-])OCC(CO[N+](=O)[O-])c1ccc2ccccc2c1 [Compound 10, 2-(2-naphthyl)-1,3-propanediol nitrate] | 13 nM | –
O=[N+]([O-])OCCc1ccc(CCO[N+](=O)[O-])cc1 [Compound 11, 1,4-bis(2-nitroxyethyl)benzene] | 4.6 nM | –
Cc1c(C)c(CCO[N+](=O)[O-])c(C)c(C)c1CCO[N+](=O)[O-] [Compound 12, 1,4-bis(2-nitroxyethyl)-2,3,5,6-tetramethylbenzene] | 78 nM | –
O=[N+]([O-])OC(Cc1ccccc1)Cc1ccccc1 [Compound 23, 1,3-diphenyl-2-propanol nitrate] | 400 nM | –
O=[N+]([O-])OCCOC(c1ccccc1)c1ccccc1 [Compound 25, 2-diphenylmethoxyethanol nitrate] | 250 nM | –
O=[N+]([O-])O[C@@H]1CO[C@H]2[C@@H]1OC[C@@H]2OC(c1ccccc1)c1ccccc1 [Compound 28, 2-diphenylmethyl-1,4:3,6-dianhydroglucitol nitrate] | 200 nM | –
O=[N+]([O-])OCC(CO[N+](=O)[O-])O[N+](=O)[O-] [glyceryl trinitrate] | – | need of oxygen to the heart [2]: lower need of oxygen to the heart; post-load of the heart [2]: also affected, be it to a lower extent; pre-load of the heart [2]: diminish especially the pre-load of the heart; development of tolerance [3]: development of so-called tolerance; EC50 ([1]; rat thoracal aorta strips, contracted with 10^-7 M phenylefrine, cumulative concentrations, 37° C.): 7.3 nM
